Experimental data reported in patent US20210161997A1, “TREATING DISEASES VIA TARGETED MODULATION OF GENE SIGNALING NETWORKS” (Camp4 Therapeutics Corporation, priority 2018, published 2021).
Where a name gives a salt, the structure may show the parent alone.

B1: Wnt3a: FRIZZLED activator (protein, UniProt P56704 19-352, looked up)
Protein Wnt-3a: SYPIWWSLAVGPQYSSLGSQPILCASIPGLVPKQLRFCRNYVEIMPSVAEGIKIGIQECQHQFRGRRWNCTTVHDSLAIFGPVLDKATRESAFVHAIASAGVAFAVTRSCAEGTAAICGCSSRHQGSPGKGWKWGGCSEDIEFGGMVSREFADARENRPDARSAMNRHNNEAGRQAIASHMHLKCKCHGLSGSCEVKTCWWSQPDFRAIGDFLKDKYDSASEMVVEKHRESRGWVETLRPRYTYFKVPTERDLVYYEASPNFCEPNPETGSFGTRDRTCNVSSHGIDGCDLLCCGRGHNARAERRREKCRCVFHWCCYVSCQECTRVYDVHTCK
B2: Anti mullerian hormone: TGF-beta activator (protein, UniProt P03971 452-560, looked up)
Muellerian-inhibiting factor: SAGATAADGPCALRELSVDLRAERSVLIPETYQANNCQGVCGWPQSDRNPRYGNHVVLLLKMQVRGAALARPPCCVPTAYAGKLLISLSEERISAHHVPNMVATECGCR

Key:
Format in all cases: cell-based
MECP2 mRNA [1] = assay: MECP2 mRNA in primary human hepatocytes (donor 1, donor 2); conditions: average fold change; for Human hep donor-1 MECP2 (Avg_FC) 1 uM / Human hep donor-1 MECP2 (Avg_FC) 10 uM: human hepatocytes donor-1; for Human hep donor-1 MECP2 (Avg_FC) 1 uM / Human hep donor-2 MECP2 (Avg_FC) 1 uM: compound 1 uM; for Human hep donor-1 MECP2 (Avg_FC) 10 uM / Human hep donor-2 MECP2 (Avg_FC) 10 uM: compound 10 uM; for Human hep donor-2 MECP2 (Avg_FC) 1 uM / Human hep donor-2 MECP2 (Avg_FC) 10 uM: human hepatocytes donor-2
Method: (§1) Human hepatocytes were obtained from two donors from Massachusetts General Hospital, namely MGH54 and MGH63, and one donor from Lonza, namely HUM4111B. Cryopreserved hepatocytes were cultured in plating media for 16 hours, transferred to maintenance media for 4 hours. Cultured on serum-free media for 2 hours, then a compound was added. The hepatocytes were maintained on the serum-free media for 16 hours prior to gene expression analysis. Primary human hepatocytes were stored in the vapor phase of a liquid nitrogen freezer (about −130° C.).
(§2) Human hepatocytes cultured as described above were plated in 24-well format, adding 375,000 cells per well in a volume of 500 ul plating medium. Four hours before treatment, cells were washed with PBS and the medium was changed to either: fresh maintenance medium (complete) or modified maintenance medium.
(§3) Compound stocks were prepared at 1000× final concentration and added in a 2-step dilution to the medium to reduce risk of a compound precipitating out of solution when added to the cells, and to ensure reasonable pipetting volumes. One at a time, each compound was first diluted 10-fold in warm (about 37° C.) modified maintenance medium (initial dilution=ID), mixed by vortexing, and the ID was diluted 100-fold into the cell culture (e.g. 5.1 ul into 1 well of a 24-well plate containing 0.5 mL medium). The plate was mixed by carefully swirling and after all wells were treated and returned to the incubator overnight. If desired, separate plates/wells were treated with vehicle-only controls and/or positive controls. If using multi-well plates, controls were included on each plate. After about 18 hours, cells were harvested for further analysis, e.g., ChIP-seq, RNA-seq, ATAC-seq, etc.
Samples were amplified using Taqman probes from ThermoFisher.

MECP2 mRNA [2] = assay: MECP2 mRNA in stellate cells; conditions: average fold change; for Stellate MECP2 (Avg_FC) 1 uM: compound 1 uM; for Stellate MECP2 (Avg_FC) 10 uM: compound 10 uM
ANGPTL3 = assay: RNA-seq of ANGPTL3 expression in compound-treated primary human hepatocytes; conditions: additional compounds (Table 13), linear fold change
Method: as §1, §2, §3
(§4) This protocol is a modified version of the following protocols: MagMAX mirVana Total RNA Isolation Kit User Guide (Applied Biosystems #MAN0011131 Rev B.0), NEBNext Poly(A) mRNA Magnetic Isolation Module (E7490), and NEBNext Ultra Directional RNA Library Prep Kit for Illumina (E7420) (New England Biosystems #E74901).
(§5) The MagMAX mirVana kit instructions (the section titled “Isolate RNA from cells” on pages 14-17) were used for isolation of total RNA from cells in culture. Two hundred μl of Lysis Binding Mix was used per well of the multiwell plate containing adherent cells (usually a 24-well plate).
(§6) For mRNA isolation and library prep, the NEBNext Poly(A) mRNA Magnetic Isolation Module and Directional Prep kit was used. RNA isolated from cells above was quantified, and prepared in […] of each sample in 50 μl of nuclease-free water. This protocol may be run in microfuge tubes or in a 96-well plate.
All pass filter reads from each sample were mapped against the human genome (assembly GRCh38/GCA_000001405.15 “no alt” analysis set merged with hs38d1/GCA_000786075.2) using two pass mapping via STAR version 2.5.3a (alignment parameters alignIntronMin=20; alignIntronMax=1000000; outFilterMismatchNmax=999; outFilterMismatchNoverLmax=0.05; outFilterType=BySJout; outFilterMultimapNmax=20; alignSJoverhangMin=8; alignSJDBoverhangMin=1; alignMatesGapMax=1000000) (Dobin et al., Bioinformatics (2012) 29(1):15-21). Genomic alignments were converted to transcriptome alignments based on reference transcript annotations from the Human GENCODE Gene Set release 24 (Harrow et al., Genome Res. (2012) 22(9): 1760-1774). Using unique and multimapped transcriptomic alignments, gene-level abundance estimates were computed using RSEM version 1.3.0 (Li and Dewey, BMC Bioinformatics (2011) 12:323) in a strand-aware manner, and including confidence interval sampling calculations, to arrive at posterior mean estimates (PME) of abundances (counts and normalized FPKM—fragments per kilobase of exon per million mapped fragments) from the underlying Bayesian model. Standard QC were applied (read integrity, mapping statistics, library complexity, fragment bias) to remove unsatisfactory samples.

UGT1A1 = assay: RNA-seq of UGT1A1 expression in compound-treated primary human hepatocytes
Method: as §1, §2, §3, §4, §5, §6
Standard QC were applied (read integrity, mapping statistics, library complexity, fragment bias) to remove unsatisfactory samples. […] Log 2 fold change and significance values were computed using PME count data (with replicates explicitly modeled versus pan-experiment controls), median ratio normalized, using maximum likelihood estimation rather than maximum a posteriori, and disabling the use of Cook's distance cutoff when determining acceptable adjusted p-values. […] RNA-seq signals were also normalized by read depth and visualized using the UCSC browser.
To identify small molecules that modulate target gene expression, primary human hepatocytes were prepared as a monoculture, and at least one small molecule compound was applied to the cells.
RNA-seq was performed to determine the effects of the compounds on the expression of the target genes in hepatocytes. Fold change was calculated by dividing the level of expression in the cell system that had been perturbed by the level of expression in an unperturbed system. Changes in expression having a p-value ≤0.05 were considered significant.
Significance was defined as an FPKM ≥1, a log 2(fold change) ≥0.5, and a q-value of ≤0.05 for all targets except for CPOX.

| Molecule | Human hep donor-1 MECP2 (Avg_FC) 1 uM (MECP2 mRNA [1]) | Human hep donor-1 MECP2 (Avg_FC) 10 uM (MECP2 mRNA [1]) | Stellate MECP2 (Avg_FC) 1 uM (MECP2 mRNA [2]) | Stellate MECP2 (Avg_FC) 10 uM (MECP2 mRNA [2]) | Human hep donor-2 MECP2 (Avg_FC) 1 uM (MECP2 mRNA [1]) | Human hep donor-2 MECP2 (Avg_FC) 10 uM (MECP2 mRNA [1]) | ANGPTL3-LINEAR FOLD CHANGE (ANGPTL3) | UGT1A1 Fold Change (Log2) (UGT1A1) |
| --- | --- | --- | --- | --- | --- | --- | --- | --- |
| C=CCNC1=C2C[C@@H](C)C[C@H](OC)[C@H](O)[C@@H](C)/C=C(\C)[C@H](OC(N)=O)[C@@H](OC)/C=C\C=C(/C)C(=O)NC(=CC1=O)C2=O [17-AAG (Tanespimycin)/KOS-953] | 1.63 | 2.80 | 2.43 | 2.21 |  |  |  |  |
| CCOc1ccn(-c2ccc(F)cc2)c(=O)c1C(=O)Nc1ccc(Oc2ccnc(N)c2Cl)c(F)c1 [BMS 777607] |  |  | 0.97 | 1.92 | 1.35 | 3.04 |  |  |
| c1cc(OCCN2CCCCC2)cc(-c2n[nH]c3ccc(-c4nc[nH]n4)cc23)c1 [CC-401 hydrochloride] | 1.84 | 2.03 | 1.92 | 2.69 |  |  |  |  |
| COc1cccc(-c2cc(F)ccc2[C@H]2Cc3nc(N)nc(C)c3C(=O)N2)n1 [HSP-990] | 2.54 | 2.72 | 1.98 | 1.99 | 1.27 | 1.66 |  |  |
| CC(C)n1nc(-c2ccc3oc(N)nc3c2)c2c(N)ncnc21 [INK-128] |  |  | 1.33 | 2.42 | 2.16 | 2.52 |  |  |
| NC(=O)c1ccc(I)c([N+](=O)[O-])c1 [Iniparib (BSI-201)] | 2.28 | 2.15 | 2.39 | 2.26 |  |  |  |  |
| CN(C)C[C@@H]1CCn2cc(c3ccccc32)C2=C(C(=O)NC2=O)c2cn(c3ccccc23)CCO1.Cl [LY333531 HCl] | 1.44 | 2.14 | 1.26 | 2.15 |  |  |  |  |
| O=C1NC(=O)C(c2cnc3ccccn23)=C1c1cn2c3c(cc(F)cc13)CN(C(=O)N1CCCCC1)CC2 [LY2090314] | 2.43 | 1.94 | 2.65 | 2.20 |  |  | 0.1895 |  |
| Cc1ccc(F)c(NC(=O)Nc2ccc(-c3cccc4[nH]nc(N)c34)cc2)c1 [Linifanib (ABT-869), Linifanib] | 1.78 | 2.01 | 2.50 | 3.17 |  |  |  |  |
| O=C(O)[C@]1(Cc2cccc(Nc3nccs3)n2)CC[C@@H](Oc2cccc(Cl)c2F)CC1 [MK-5108 (VX-689)] | 2.42 | 2.35 | 2.17 | 2.01 |  |  |  |  |
| COc1ccc(Cl)c(Nc2nc3ccccc3nc2NS(=O)(=O)c2cccc(NC(=O)C(C)(C)N)c2)c1 [Pilaralisib (XL147), Pilaralisib] | 1.95 | 1.75 | 2.28 | 2.21 |  |  | 0.2606 |  |
| CCc1ccc(CCOc2ccc(CC3SC(=O)NC3=O)cc2)nc1 (stereo not drawn) [Pioglitazone HCl] | 2.21 | 2.27 | 1.94 | 1.86 |  |  |  |  |
| CNC(=O)c1cc(Oc2ccc(NC(=O)Nc3ccc(Cl)c(C(F)(F)F)c3)c(F)c2)ccn1 [Regorafenib (BAY 73-4506)] | 2.05 | 1.92 | 2.31 | 2.77 |  |  |  |  |
| CC(C)[C@H](O)C(=O)N[C@@H](C)C(=O)N[C@@H]1C(=O)N(C)CCc2ccccc21 [Semagacestat] |  |  |  |  |  |  |  | 1.01 |
| CCC(=O)N1CCN(c2ccc(-n3c(=O)ccc4cnc5ccc(-c6cnc7ccccc7c6)cc5c43)cc2C(F)(F)F)CC1 [torin1] |  |  | 1.87 | 3.65 | 1.34 | 1.79 |  |  |
| BAM7 |  |  |  |  |  |  |  | 1.66 |
| Pifithrin-a |  |  |  |  |  |  |  | 1.44 |
| meBIO |  |  |  |  |  |  |  | 1.98 |
| B1 |  |  |  |  |  |  |  | 0.59 |
| B2 |  |  |  |  |  |  |  | 0.59 |
